Assay [1] addresses T1, human dopamine D3 receptors (Homo sapiens, UniProt P35462).
T1 construct: expressed in transfected cells
Put plainly: Dopamine D3 receptor binding assay ([3H]spiperone, CHO cell membranes). As to conditions: for Ki: human D3 receptors in CHO cells, 0.2 nM [3H]spiperone, mean ± SEM, read-out: Affinity Ki (D3); for Selectivity Ki(D2)/Ki(D3): ratio of Ki(D2) to Ki(D3). Here is the method:
(§1) Compounds synthesized in Examples A, B, C and D were assayed to test their affinity for dopamine D3 and D2 receptors.
(§2) METHODS: Dopamine D2S and D3 Receptor Binding Assays
Human D3 receptors stably expressed in CHO cells were used as described by Sokoloff et al. (Sokoloff, P. et al., Eur. J. Pharmacol. 1992, 225, 331-337). The cell line was cultured in Dulbecco's modified Eagle's medium supplemented with 2 mM glutamine, and 10% dialyzed fetal bovine serum, and were grown in an atmosphere of 5% CO2 at 37° C. (Gibco™).
(§3) Human D2S- and D3 receptors expressing cell lines were grown to confluence. The medium was removed, and the cells were washed with 10 ml PBS buffer (140 mM NaCl, 3 mM KCl, 1.5 mM KH2PO4, 8 mM Na2HPO4, pH 7.4) at 4° C. After removing the wash buffer, the cells were scraped from the flasks into 15 ml of ice-cold media, and centrifuged at 3,000 rpm for 10 minutes at 4° C. After centrifugation the medium was removed and the […] resuspended in ice-cold Tris-HCl buffer containing 5 mM MgCl2, pH 7.4 and disrupted with a Polytron and centrifuged at 20,000 rpm, for 30 minutes at 4° C. The pellet was resuspended by sonication in ice-cold Tris-HCl buffer (containing 5 mM MgCl2, pH 7.4), membrane aliquots were stored at −70° C. Determination of membrane protein was carried out by the method of Bradford (Bradford, M. M. Anal Biochem 1976, 72, 248-54).
(§4) Cell membranes containing human D2S and D3 receptors from CHO cells were thawed, rehomogenized with sonication at 4° C. in Tris-HCl, pH 7.4 containing 120 mM NaCl, 5 mM KCl, 2 mM CaCl2 and 1 mM MgCl2 (incubation buffer), and incubated with 0.2 nM [^3H]spiperone (106 Ci·mmol^−1, Amersham Biosciences, Freiburg, Germany), and drug diluted in incubation buffer. Non-specific binding was determined in the presence of 10 μM BP 897 ((Wermuth, C. G. et al. in Chem. Abstr. (Eur. Pat. 0779284, 1997)). Incubations were run at 25° C. for 120 min, and terminated by rapid filtration through PerkinElmer GF/B glass fibre filters (PerkinElmer Life Sciences, Rodgau, Germany) coated in 0.3% polyethylenimine (Sigma-Aldrich, Taufkirchen, Germany) using an Inotech cell harvester (Inotech AG, Dottikon, Switzerland). Unbound radioligand was removed with four washes of 1 ml of ice-cold 50 mM Tris-HCl buffer, pH 7.4, containing 120 mM NaCl. The filters were soaked in 9 ml Beta plate scint scintillator and counted using a PerkinElmer MicroBeta®Trilux scintillation counter (PerkinElmer Life Sciences). Competition binding data were analyzed by the software GraphPad Prism™ (2000, version 3.02, San Diego, Calif., USA), using non-linear least squares fit. For detailed screening the compounds have been tested at seven concentrations in triplicate carrying out three to five separate binding experiments for human dopamine D2S and for human dopamine D3 receptors and expressed as mean±standard error of the mean (SEM). Ki values were calculated from the IC50 values according to Cheng-Prusoff equation (Cheng, Y. C., Prusoff, W. H. Biochem. Pharmacol. 1973, 22, 3099-3108.).

For assay [2], the target named is T2, recombinant human D2(short) dopamine receptor (Homo sapiens, UniProt P14416).
T2 construct: expressed in transfected cells; host or cells: CHO-D2S cells (per Hayes et al. 1992)
The assay is described as follows: Dopamine D2S receptor binding assay ([3H]spiperone, CHO cell membranes). As to conditions: human D2S receptors in CHO cells, 0.2 nM [3H]spiperone, mean ± SEM; read-out: Affinity Ki (D2). The procedure:
as §1, §2
CHO-D2S cells, expressing the recombinant human D2(short) dopamine receptor gene, (Hayes, G. et al., J. Mol. Endocrinol. 1992, 6, 920-926) were grown in Dulbecco's modified Eagle's medium/nutrient mixture F12 1:1 mixture supplemented with 2 mM glutamine, 10% fetal bovine serum, and 10 μl·ml^−1 penicillin/streptomycin in an atmosphere of 5% CO2 at 37° C. (Gibco™, Karlsruhe, Germany).
as §3, §4

The structures appear in SMILES notation.

T2 sequence (P14416 1-414 isoform P14416-2): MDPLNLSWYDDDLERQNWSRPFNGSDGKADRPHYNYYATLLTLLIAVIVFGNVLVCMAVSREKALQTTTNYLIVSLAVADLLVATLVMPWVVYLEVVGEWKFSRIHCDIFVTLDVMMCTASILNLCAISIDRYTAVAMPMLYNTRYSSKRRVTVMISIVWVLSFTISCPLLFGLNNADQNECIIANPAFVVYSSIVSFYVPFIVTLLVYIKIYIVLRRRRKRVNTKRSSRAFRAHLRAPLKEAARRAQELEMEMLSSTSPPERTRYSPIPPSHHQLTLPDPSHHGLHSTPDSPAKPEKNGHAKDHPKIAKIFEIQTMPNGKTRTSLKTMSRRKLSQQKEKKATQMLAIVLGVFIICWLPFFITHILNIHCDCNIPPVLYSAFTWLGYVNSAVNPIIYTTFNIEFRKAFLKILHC
T1 sequence (P35462 whole entry): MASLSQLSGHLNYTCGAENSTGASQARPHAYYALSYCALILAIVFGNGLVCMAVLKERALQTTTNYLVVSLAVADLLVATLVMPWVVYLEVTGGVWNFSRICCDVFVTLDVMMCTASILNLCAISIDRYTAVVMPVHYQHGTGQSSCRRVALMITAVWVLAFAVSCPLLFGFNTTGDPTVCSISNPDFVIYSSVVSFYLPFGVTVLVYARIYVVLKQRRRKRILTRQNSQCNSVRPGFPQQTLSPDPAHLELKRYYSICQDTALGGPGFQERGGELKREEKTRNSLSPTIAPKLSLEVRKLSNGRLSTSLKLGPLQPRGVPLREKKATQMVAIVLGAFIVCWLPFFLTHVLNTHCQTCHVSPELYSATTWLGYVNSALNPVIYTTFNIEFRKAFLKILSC

On to `CCCN(CCCCNC(=O)N1CCCCC1)C1CCc2ncsc2C1` (stereo not drawn) [Compound 21, Piperidine-1-carboxylic acid {4-[propyl-(4,5,6,7-tetrahydro-benzothiazol-6-yl)-amino]-butyl}-amide], for which, in assay [1], the inhibition constant (Ki) (commonly the equilibrium dissociation constant of an inhibitor or competing ligand from its target) turned out to be 6.46 ± 3.25 nM and the “Selectivity Ki(D2)/Ki(D3)” value amounted to 1152. In addition, in assay [2], the Ki was 7440 ± 2290 nM.

Regarding `CCCN(CCN1CCN(C(=O)c2ccccc2)CC1)C1CCc2ncsc2C1` (stereo not drawn) [Compound 38, [2-(4-Benzoyl-piperazin-1-yl)-ethyl]-propyl-(4,5,6,7-tetrahydro-benzothiazol-6-yl)-amine], the Ki in assay [1] was found to be 27.4 ± 14.8 nM; in assay [2], 5270 ± 1850 nM. The “Selectivity Ki(D2)/Ki(D3)” value in assay [1] is 192.

In the case of `CCN(CCCCNC(=O)c1ccc2ccccc2c1)C1CCc2ncsc2C1` (stereo not drawn) [Compound 4, Naphthalene-2-carboxylic acid {4-[ethyl-(4,5,6,7-tetrahydro-benzothiazol-6-yl)-amino]-butyl}-amide], in assay [1], the Ki came out at 2.7 ± 0.94 nM and the “Selectivity Ki(D2)/Ki(D3)” value is given as 581. Further, the inhibition constant Ki in assay [2] is 1570 ± 303 nM.

Regarding `C#CCN(CCCCNC(=O)c1ccc2ccccc2c1)C1CCc2ncsc2C1` (stereo not drawn) [Compound 7, Naphthalene-2-carboxylic acid {4-[prop-2-ynyl-(4,5,6,7-tetrahydro-benzothiazol-6-yl)-amino]-butyl}-amide], the figures for the Ki in assay [1] and in assay [2] were 7.76 ± 1.37 nM and 9080 ± 684 nM, respectively. The “Selectivity Ki(D2)/Ki(D3)” value in assay [1] is reported as 1170.

As to `CCCN(CCCCNC(=O)N1CCC(c2ccccc2)CC1)C1CCc2ncsc2C1` (stereo not drawn) [Compound 64, 4-phenyl-N-(4-(propyl-(4,5,6,7-tetrahydrobenzo [d]thiazol-6-yl)amino)butyl)piperidine-1-carboxamide], the Ki in assay [1] is 6.29 ± 1.8 nM; in assay [2], 2730 ± 611 nM. Also, the “Selectivity Ki(D2)/Ki(D3)” value in assay [1] is on record as 435.

With `CCCN(CCCCNC(=O)c1cnc(-c2ccc(Cl)cc2)s1)C1CCc2ncsc2C1` (stereo not drawn) [Compound 19, 2-(4-Chloro-phenyl)-thiazole-5-carboxylic acid {4-[propyl-(4,5,6,7-tetrahydro-benzothiazol-6-yl)-amino]-butyl}-amide], the inhibition constant Ki in assay [1] stood at 83 ± 2 nM; in assay [2], 2520 ± 144 nM. The “Selectivity Ki(D2)/Ki(D3)” value in assay [1] was 30.

As for `CCCN(CCCN1CCN(c2cccc(Cl)c2Cl)CC1)C1CCc2ncsc2C1` (stereo not drawn) [Compound 36, {3-[4-(2,3-Dichloro-phenyl)-piperazin-1-yl]-propyl}-propyl-(4,5,6,7-tetrahydro-benzothiazol-6-yl)-amine], the Ki turned out to be 35 ± 22 nM in assay [1] and 129 ± 36 nM in assay [2]. Besides, in assay [1], the “Selectivity Ki(D2)/Ki(D3)” value came to 4.

`C=CCN(CCCCNC(=O)c1ccc2ccccc2c1)C1CCc2ncsc2C1` (stereo not drawn) [Compound 6, Naphthalene-2-carboxylic acid {4-[allyl-(4,5,6,7-tetrahydro-benzothiazol-6-yl)-amino]-butyl}-amide]: in assay [1], the Ki is 0.95 ± 0.2 nM and the “Selectivity Ki(D2)/Ki(D3)” value was found to be 486. Further, in assay [2], the Ki was found to be 459 ± 83 nM.

As to `CCN(CCCCNC(=O)c1cc2ccccc2s1)C1CCc2ncsc2C1` (stereo not drawn) [Compound 12, Benzo[b]thiophene-2-carboxylic acid {4-[ethyl-(4,5,6,7-tetrahydro-benzothiazol-6-yl)-amino]-butyl}-amide], in assay [1], the Ki stood at 2.92 ± 0.48 nM and the “Selectivity Ki(D2)/Ki(D3)” value amounted to 856. Moreover, the Ki in assay [2] came out at 2500 ± 463 nM.

For the compound `CCCN(CCCCNC(=O)c1ccc2ncsc2c1)C1CCc2ncsc2C1` (stereo not drawn) [Compound 15], in assay [1], the inhibition constant (Ki) came to 0.65 ± 0.09 nM and the “Selectivity Ki(D2)/Ki(D3)” value came out at 531. Further, the inhibitory constant (Ki) in assay [2] was determined as 347 ± 133 nM.

Consider `CCCN(CCCCNC(=O)N1CCN(c2ccccc2)CC1)C1CCc2ncsc2C1` (stereo not drawn) [Compound 61, 4-Phenylpiperazine-1-carboxylic acid {4-[propyl-(4,5,6,7-tetrahydrobenzothiazol-6-yl)amino]butyl}amide], for which, in assay [1], the inhibitory constant (Ki) was 2.09 ± 0.57 nM and the “Selectivity Ki(D2)/Ki(D3)” value amounted to 1640. Moreover, the inhibition constant Ki in assay [2] amounted to 3430 ± 1290 nM.

For the compound `CN(CCCCNC(=O)c1cc2ccccc2s1)C1CCc2ncsc2C1` (stereo not drawn) [Compound 11, Benzo[b]thiophene-2-carboxylic acid {4-[methyl-(4,5,6,7-tetrahydro-benzothiazol-6-yl)-amino]-butyl}-amide], in assay [1], the Ki was determined as 52.6 ± 5.1 nM and the “Selectivity Ki(D2)/Ki(D3)” value was determined as 65. The Ki in assay [2] was determined as 3390 ± 388 nM.

For `CCCN(CCCCNC(=O)N1Cc2ccccc2C1)C1CCc2ncsc2C1` (stereo not drawn) [Compound 27, 1,3-Dihydro-isoindole-2-carboxylic acid {4-[propyl-(4,5,6,7-tetrahydro-benzothiazol-6-yl)-amino]-butyl}-amide], in assay [1], the inhibition constant Ki amounted to 2.25 ± 1.24 nM and the “Selectivity Ki(D2)/Ki(D3)” value is given as 1422. The inhibition constant (Ki) in assay [2] came out at 3190 ± 1470 nM.

For `CCCN(CCCCNC(=O)C1CCCCC1)C1CCc2ncsc2C1` (stereo not drawn) [Compound 20, Cyclohexanecarboxylic acid {4-[propyl-(4,5,6,7-tetrahydro-benzothiazol-6-yl)-amino]-butyl}-amide], the values for the inhibition constant Ki in assay [1] and in assay [2] were 2.62 ± 0.16 nM and 1530 ± 297 nM, respectively. Besides, the “Selectivity Ki(D2)/Ki(D3)” value in assay [1] is recorded as 582.

Regarding `CCCN(CCCCNC(=O)C1Cc2ccccc2C1)C1CCc2ncsc2C1` (stereo not drawn) [Compound 26, Indane-2-carboxylic acid-{4-[propyl-(4,5,6,7-tetrahydrobenzothiazol-6-yl)amino]butyl}amide], in assay [1], the Ki stood at 1.52 ± 0.55 nM and the “Selectivity Ki(D2)/Ki(D3)” value came out at 1189. Further, the Ki in assay [2] is 1810 ± 376 nM.

With `CCCN(CCCCNC(=O)C=Cc1ccc(Cl)cc1Cl)C1CCc2ncsc2C1` (stereo not drawn) [Compound 17, 2,4-Dichloro-N-{4-[propyl-(4,5,6,7-tetrahydro-benzothiazol-6-yl)-amino]-butyl}-cinnamoylamide], the inhibitory constant (Ki) was determined as 2.41 ± 1 nM in assay [1] and 445 ± 55 nM in assay [2]. In addition, the “Selectivity Ki(D2)/Ki(D3)” value in assay [1] is listed as 184.

With `CCCN(CCCCNC(=O)C=Cc1ccccc1)C1CCc2ncsc2C1` (stereo not drawn) [Compound 16, N-{4-[Propyl-(4,5,6,7-tetrahydro-benzothiazol-6-yl)-amino]-butyl}-cinnamoylamide], the figures for the Ki in assay [1] and in assay [2] were 8.11 ± 1.23 nM and 4010 ± 383 nM, respectively. Besides, in assay [1], the “Selectivity Ki(D2)/Ki(D3)” value is recorded as 495.

As for `CCCN(CCCCNC(=O)NC1CCCCC1)C1CCc2ncsc2C1` (stereo not drawn) [Compound 22, 1-Cyclohexyl-3-{4-[propyl-(4,5,6,7-tetrahydro-benzothiazol-6-yl)-amino]-butyl}-urea], in assay [1], the inhibition constant Ki was determined as 2.97 ± 1.23 nM and the “Selectivity Ki(D2)/Ki(D3)” value worked out at 1642. Besides, the inhibitory constant (Ki) in assay [2] was found to be 4870 ± 1050 nM.

As for `CCCN(CCCCNC(=O)c1ccccc1)C1CCc2ncsc2C1` (stereo not drawn) [Compound 1, N-{4-[Propyl-(4,5,6,7-tetrahydro-benzothiazol-6-yl)-amino]-butyl}-benzamide], in assay [1], the Ki was 2.26 ± 0.79 nM and the “Selectivity Ki(D2)/Ki(D3)” value came out at 746. Further, the inhibition constant Ki in assay [2] was determined as 1680 ± 382 nM.

For `O=C(NCCCCNC1CCc2ncsc2C1)c1ccc2ccccc2c1` (stereo not drawn) [Compound 2, Naphthalene-2-carboxylic acid [4-(4,5,6,7-tetrahydro-benzothiazol-6-ylamino)-butyl]-amide], in assay [1], the Ki came out at 147 ± 30 nM and the “Selectivity Ki(D2)/Ki(D3)” value is given as 143. For the same compound, the Ki in assay [2] worked out at 21000 ± 2550 nM.

On to `CCCN(CCCCNC(=O)c1cc2ccccc2s1)C1CCc2ncsc2C1` (stereo not drawn) [Compound 13, Benzo[b]thiophene-2-carboxylic acid {4-[propyl-(4,5,6,7-tetrahydro-benzothiazol-6-yl)-amino]-butyl}-amide], for which, in assay [1], the inhibitory constant (Ki) amounted to 16 ± 6 nM and the “Selectivity Ki(D2)/Ki(D3)” value turned out to be 141. Also, the Ki in assay [2] is 2280 ± 105 nM.

(Values after patent publication US8389555B2, “Medicaments” (Motac Neuroscience Limited, priority 2007, dated 2013).)
